Structures can show the parent of a compound that is named as a salt.
Tests used:
[1] = Two-chamber release test of model drugs from hydrogel laminate; format: physicochemical; conditions: for dye leakage through the laminate into the opposite chamber: absorbance at 550 nm and 630 nm in both chambers; for power law release exponent: release from hydrogel layers of the laminate into DI water, Fickian release
Source text: A two-chamber diffusion device was made using cast acrylic plates (McMaster Carr), and small magnetic stir bars and stir plates (VWR International) were used for stirring. For the diffusion tests, a 3cm×3 cm hydrogel, elastomer, or impermeable hydrogel laminate sample was placed between the chambers and screwed together tightly to prevent leakage from the chambers. A 5.0×10−4 M rhodamine B solution (Sigma-Aldrich R6626) was placed on one chamber while DI water was placed in the opposite chamber, and 1 mL aliquots were taken every 10 min and placed in a disposable cuvette. Absorbance was measured using a spectrophotometer (BioMate 3S, ThermoFischer Scientific) and converted to concentration using calibration curves of solutions with known concentrations. The setup for release experiments was identical except both chambers initially contained DI water with rhodamine B and green food dye (Fast green FCF, Sigma-Aldrich F7252) being released from the hydrogel. For rhodamine diffusion and release, a wavelength sweep was performed to determine the maximum absorbance, which occurred at 550 nm. The calibration curve was constructed by measuring absorbance of standard solutions in the 0-50×10−6 m range. For green food dye release, the maximum absorbance occurred at 630 nm. The calibration curve was constructed by measuring absorbance of standard solutions in the 0-200 ppm range.
Taking advantage of the impermeability of the hydrogel-elastomer laminate, the possibility of releasing different molecules from the two sides of the hydrogel sheets in the laminate was tested. Green food dye (Fast Green FCF, Sigma-Aldrich) and rhodamine B were used as model drugs and were loaded into the opposing two hydrogel sheets in the hydrogel-elastomer laminate structure. […] The concentrations of green food dye and rhodamine B in the solutions of both chambers were measured over time using absorbance measurements. […] Since the dyes used have absorbance maximums at different wavelengths (550 nm and 630 nm), it was possible to detect dye leakage through the impermeable hydrogel-elastomer laminate by monitoring the absorbance signals at the two wavelengths in both chambers.

[2] = tested on: Escherichi coli strain expressing green fluorescent protein; experiment: Bacterial adhesion testing; format: cell-based; conditions: 24 hour incubation; FIG. 4; streptomycin sulfate 0.1 wt %
Source text: The high robustness and stretchability of the hydrogel-elastomer laminates allows for proper functioning of the devices under stresses and deformations. […] In addition, the lubricious and highly hydrated hydrogel coating surfaces provided by the present invention are capable of improving protein adsorption, anticlotting and foreign-body reaction of the device as compared to an uncoated device. Moreover, the coating protocol of the present invention can be designed to include therapeutic agents in the hydrogel coating and/or to introduce hydrogel components with known biological responses such as PEG, hyaluronic acid, and zwitterionic groups.
An engineered Escherichi coli strain expressing green fluorescent protein was cultured in a 24-well plate above 8 mm round samples of latex, glass or swollen hydrogel laminate (PAAm-ALG and PAAm-CHI, as described previously). Streptomycin sulfate (Sigma-Aldrich S9137) was added to the two laminate formulations, at a final concentration of 0.1 wt %. After incubating at 37° C. for 24 h, the samples were removed, rinsed with PBS to remove free-floating bacteria, and imaged with a fluorescent microscope (Nikon Eclipse LV100ND).

Row | power law release exponent [1] | Compound | dye leakage through the laminate into the opposite chamber [1] | effect on antibacterial action of the hydrogel laminates [2]
1 | 0.5 | CCN(CC)c1ccc2c(-c3ccccc3C(=O)O)c3ccc(=[N+](CC)CC)cc-3oc2c1 [rhodamine B] | vice versa | 
2 |  | [H]/N=C(/N)N[C@H]1[C@H](O)[C@@H](O)[C@H](O[C@@H]2O[C@@H](C)[C@](O)(C=O)[C@H]2O[C@@H]2O[C@@H](CO)[C@H](O)[C@@H](O)[C@@H]2NC)[C@@H](N/C(N)=N\[H])[C@@H]1O [antibiotic, Streptomycin sulfate] |  | improve the antibacterial action
3 | 0.5 | CCN(Cc1cccc(S(=O)(=O)[O-])c1)c1ccc(C(=C2C=CC(=[N+](CC)Cc3cccc(S(=O)(=O)[O-])c3)C=C2)c2ccc(O)cc2S(=O)(=O)[O-])cc1.[Na+].[Na+] [Green food dye, Fast Green FCF] | No green food dye was detected in the rhodamine chamber | 

Source: patent publication US20190125934A1, “TOUGH HYDROGEL COATING AND METHOD OF MANUFACTURE” (Massachusetts Institute of Technology, priority 2017, published 2019)
